# Reference: US20070275006A1, “IRIDOID GLYCOSIDE COMPOSITION” (priority 2006, published 2007)
# System: Th1 (IL-2, IFN-γ, TNF alpha) and Th2 (IL-4, IL-5, IL-10) cytokines
# Test: Th1 & Th2 cytokines in lymph node cells of HBsAg immunized mice by flowcytometry
# Format: in vivo
# Conditions: adjuvant containing HBsAg; immunized mice day 28, flowcytometry
# From the text: Cytokines (Th1 & Th2 responses) in serum by ELISA (Quantikine, R & D systems) and lymph node cells by flowcytometry collected from immunized mice on day 28th (Quantikine, optia Kit).
# High levels of Th1 cytokines were secreted in response to MDP and FCA containing HBsAg.
smiles,measurement,value
"CC(=O)N[C@H]1C(O)O[C@H](CO)[C@@H](O)[C@@H]1O[C@H](C)C(=O)N[C@@H](C)C(=O)N[C@H](CCC(=O)O)C(N)=O (mixture of isomers) [MDP, Muramyl dipeptide]",Th1 and Th2 cytokines in lymph nodes cell culture fluid,very low for the Th2 cytokines and increased Th1 type of immune response
